# Experimental data taken from patent US8658390B2, “Method for detecting muscle degenerative diseases, and method for determining therapeutic efficacy on the diseases” (Osaka Bioscience Institute, priority 2009, dated 2014).
# Columns and labels:
# mdx mice [1] = experiment: Urine Tetranor-PGDM concentration in mdx mice (HPLC-MS/MS); type: in vivo, mouse; conditions: oral, 30 mg/kg for 5 days (FIG. 1, left)
# Experimental: (§1) Muscular dystrophy mouse: mdx (C57Bl/10 ScSn; available from JAX Laboratories)
# A solvent (0.5% methylcellulose solution) or test compound 1 was orally administered to mdx mice, 4 weeks old, for 5 days at a dose of 30 mg/kg. Using a metabolism cage for mice, urine was collected over the course of about 12 hours before the administration of test compound 1 and 5 days after the administration. For comparison, urine was also collected from wild-type mice of the same weeks old and the same lineage used as a control. The creatinine concentration in urine was measured using a measurement kit (L-type Wako CRE M, Wako Pure Chemical Industries, Ltd.). […]
# The pretreated urine sample was used for the measurement of Tetranor-PGDM levels. […] MRM (Multiple Reaction Monitoring) was used for quantification. In this technique, only the true parent ions are specifically selected from the mass of the parent ions (precursor ion) and of the fragment ions resulting from CID (collision-induced dissociation), and the parent ions are accurately quantified from the area of the selected ions. […] The fragment ions are then isolated in a second mass analyzer (Q3), and detected at the detector provided downstream. […] Area calculations were performed for the peaks originating from the Tetranor-PGDM in the resulting mass chromatogram, and each peak was quantified from the standard curve created from the standard sample. […]
# mdx mice [2] = experiment: Forefoot grip strength of mdx mice (symptom evaluation); type: in vivo, mouse; conditions: 4 weeks old, oral, 30 mg/kg for 5 days, solvent group showed no significant change (FIG. 1, right)
# Experimental: as §1
# A solvent (0.5% methylcellulose solution) or test compound 1 was orally administered to mdx mice, 4 weeks old, for 5 days at a dose of 30 mg/kg. Using a metabolism cage for mice, urine was collected over the course of about 12 hours before the administration of test compound 1 and 5 days after the administration. For comparison, urine was also collected from wild-type mice of the same weeks old and the same lineage used as a control. The creatinine concentration in urine was measured using a measurement kit (L-type Wako CRE M, Wako Pure Chemical Industries, Ltd.).
# For the symptom evaluation of the mdx mice, the forefoot grip strength was measured using a grip dynamometer for mice (traction meter; BrainSienceldea). Each measurement was made in 2 min, and the mean value of five trials was calculated.
# CXMDJ [3] = experiment: Urine Tetranor-PGDM concentration in muscular dystrophy dog CXMDJ (HPLC-MS/MS); type: in vivo
# Text: Muscular dystrophy dog: CXMDJ (CXMDJ; available from National Center of Neurology and Psychiatry)
# CXMDJ was orally administered with a solvent (0.5% methylcellulose solution) or test compound 2 for about 1 year, followed by the administration of test compound 2 for the solvent-administrated dog, and the solvent for the test compound 2-administered dog. Urine was collected before switching from the solvent to test compound 2, and from test compound 2 to the solvent. Urine was collected over time after the administered solution was switched. For comparison, urine was also collected from normal beagles used as a control.
# The urine (200 μL) collected from the mice or dogs was mixed with 5 ng of deuterium-labeled Tetranor-PGDM-d6 (Cayman Chemical) used as internal standard. The volume was adjusted to 2 mL with purified water, and pH was adjusted to 3. The urine was then injected to a Sep-Pak Vac C18 cartridge (Waters) equilibrated with acetonitrile (5 mL) and purified water (5 mL). The sample was washed with a 10% acetonitrile solution (5 mL) prepared using purified water, and with hexane (10 mL), and eluted with ethyl acetate (5 mL) before being dried under a stream of nitrogen. The residue was dissolved in a 10% acetonitrile solution (100 μL) prepared using purified water, and used as a measurement sample.
# The pretreated urine sample was used for the measurement of Tetranor-PGDM levels. […] MRM (Multiple Reaction Monitoring) was used for quantification. In this technique, only the true parent ions are specifically selected from the mass of the parent ions (precursor ion) and of the fragment ions resulting from CID (collision-induced dissociation), and the parent ions are accurately quantified from the area of the selected ions. […] The fragment ions are then isolated in a second mass analyzer (Q3), and detected at the detector provided downstream. Tetranor-PGDM (mass number 328) was detected by using any of the ions with a m/z (mass number charge) of 155, 143, and 109 produced by further decomposing the product ions with a m/z of 327 by CID (collision-induced dissociation). The internal standard Tetranor-PGDM-d6 (mass number 334) was detected by using any of the product ions with a m/z (mass number÷charge) of 161, 149, and 109 produced by further decomposing the product ions with a m/z of 333 by CID (collision-induced dissociation). […] Area calculations were performed for the peaks originating from the Tetranor-PGDM in the resulting mass chromatogram, and each peak was quantified from the standard curve created from the standard sample. In the quantification, correction was made by using the area value of the peak originating from the Tetranor-PGDM-d6 introduced as the internal standard for the correction of the extraction efficiency and ionization efficiency in each analysis.
# CXMDJ [4] = experiment: Symptom scores of muscular dystrophy dog CXMDJ; type: in vivo
# [5] = CXMDJ switched to solvent after about 1 year of oral test compound 2 (FIG. 2, left)
# [6] = CXMDJ switched to the inhibitor after about 1 year of oral solvent (FIG. 2, right)
SMILES,Tetranor-PGDM concentration in urine (mdx mice [1]),forefoot grip strength (mdx mice [2]),"Tetranor-PGDM concentration in urine (CXMDJ [3]; CXMDJ dog orally administered with test compound 2, compared with CXMDJ dog (Table 1))",urine Tetranor-PGDM concentration (CXMDJ [3]; [5]),urine Tetranor-PGDM concentration (CXMDJ [3]; [6]),Tetranor-PGDM concentration (CXMDJ [3]; urine of HPGDS inhibitor-administered CXMDJ dog (CXMDJ dog without inhibitor 27.8)) [ng/mL],symptom scores (CXMDJ [4]; [5]),symptom scores (CXMDJ [4]; [6])
"c1ccc(C(OC2CCN(CCCc3nnn[nH]3)CC2)c2ccccc2)cc1 [Test compound 1, 4-benzhydryloxy-1-{3-(1H-tetrazol-5-yl)-propyl}piperidine]",significantly lower,significantly increased,,,,,,
CON(C)C(=O)c1[nH]c(C)c(-c2nc3ccc(C(=O)c4ccccc4)cc3[nH]2)c1C [Test compound 2],,,decreased,increased,decreased,17.9,worsened,improved
